Assay [1] is described as follows: cells. It counts as functional, cell-based.
For assay [2], the target named is T1, Trace amine-associated receptor 1 (Homo sapiens, UniProt Q96RJ0).
T1 sequence (Q96RJ0 whole entry): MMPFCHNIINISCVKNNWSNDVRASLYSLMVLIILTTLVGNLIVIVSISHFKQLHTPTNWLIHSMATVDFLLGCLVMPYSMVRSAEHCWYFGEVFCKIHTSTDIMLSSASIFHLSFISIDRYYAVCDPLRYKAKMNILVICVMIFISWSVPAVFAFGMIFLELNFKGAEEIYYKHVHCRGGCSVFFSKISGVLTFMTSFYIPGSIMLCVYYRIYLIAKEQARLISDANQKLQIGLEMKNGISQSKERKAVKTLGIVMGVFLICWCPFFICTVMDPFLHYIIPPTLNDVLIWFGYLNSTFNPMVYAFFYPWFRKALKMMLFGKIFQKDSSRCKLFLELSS
Description: Fluorescence-based cell-based high throughput dose response assay to identify agonists of the human trace amine associated receptor 1 (TAAR1). It counts as functional.

The nature of assay [3]: cells. It counts as functional, cell-based. The source holds these as a separate data set.
The target of assay [4] is T1, Trace amine-associated receptor 1. Description: Counterscreen for agonists of the human trace amine associated receptor 1 (hTAAR1): Fluorescence-based cell-based high throughput dose response assay to identify hTAAR1 agonist that also desensitize TAAR1 receptor response. It counts as functional. (In general: Counterscreens check selectivity or assay interference.)
For assay [5], the target named is T2, Sentrin-specific protease 8 (Homo sapiens, UniProt Q96LD8).
T2 sequence (Q96LD8 whole entry): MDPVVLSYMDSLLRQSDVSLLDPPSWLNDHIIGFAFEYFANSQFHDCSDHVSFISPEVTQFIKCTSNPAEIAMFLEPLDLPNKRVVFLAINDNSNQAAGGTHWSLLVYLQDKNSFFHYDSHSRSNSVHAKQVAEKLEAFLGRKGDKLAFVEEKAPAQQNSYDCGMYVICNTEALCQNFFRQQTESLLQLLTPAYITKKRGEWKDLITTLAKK
It counts as functional.

Assay [6] deals with T2, Sentrin-specific protease 8. It counts as functional. The source holds these as a separate data set.
Assay [7] in a line: inhibitors of TNFa-stimulated NF-kB luciferase reporter, dose response, selectivity assay for EBV LMP1 NF-kB inhibitor project, HEK293 LMP1 reporter cells, dry powder, set 2 (AID 624369). It counts as functional.
In assay [8] the target is T3, Adenosylmethionine-8-amino-7-oxononanoate aminotransferase (Mycobacterium tuberculosis, UniProt P9WQ81).
T3 sequence (P9WQ81 whole entry): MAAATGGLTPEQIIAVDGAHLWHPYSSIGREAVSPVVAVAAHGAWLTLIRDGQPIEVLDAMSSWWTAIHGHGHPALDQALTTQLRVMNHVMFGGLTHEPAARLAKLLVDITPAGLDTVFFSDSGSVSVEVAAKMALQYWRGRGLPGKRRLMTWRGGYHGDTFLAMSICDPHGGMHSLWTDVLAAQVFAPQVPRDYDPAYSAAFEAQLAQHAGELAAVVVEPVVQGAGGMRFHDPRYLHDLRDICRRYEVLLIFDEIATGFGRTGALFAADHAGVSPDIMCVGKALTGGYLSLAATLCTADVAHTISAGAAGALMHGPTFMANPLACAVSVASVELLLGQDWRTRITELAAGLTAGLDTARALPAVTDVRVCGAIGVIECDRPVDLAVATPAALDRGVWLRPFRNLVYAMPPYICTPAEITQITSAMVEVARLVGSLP
Description: Mycobacterium tuberculosis BioA enzyme inhibitor Measured in Biochemical System Using Plate Reader - 2163-02_Inhibitor_Dose_CherryPick_Activity. It counts as functional, Mycobacterium tuberculosis UT205.

Assay [9] in a line: Counterscreen for activators of the function of SWI/SNF related, matrix associated, actin dependent regulator of chromatin, subfamily a, member 2 (SMARCA2, BRM): Luminescence-based cell-based high throughput dose response assay to identify non-selective compounds using the VP16 reporter assay. It counts as functional.
Assay [10] concerns the target SWI/SNF-related matrix-associated actin-dependent regulator of chromatin subfamily A member 2 (Homo sapiens, UniProt P51531). Description: Luminescence-based cell-based high throughput dose response assay to identify activators of the function of SWI/SNF related, matrix associated, actin dependent regulator of chromatin, subfamily a, member 2 (SMARCA2, BRM). It counts as functional.

Another assay concerns H4. The assay can be described thus: Luminescence Cell-Based Dose Response HTS to Identify Activators of 5'UTR Stem-Loop Driven Prion Protein mRNA Translation in H4 Neuroglioblastoma Cells. [Related pubchem assays: 1829 (Project Summary), 1814 (Primary HTS)]. It counts as functional. The note with it: Homo sapiens.
Assay [11] is described as follows: Luminescence Cell-Based Dose Confirmation HTS to Identify Activators of 5'UTR Stem-Loop Driven Alpha-Synuclein mRNA Translation in H4 Neuroglioblastoma Cells. [Related pubchem assays: 1829 (Project Summary), 1814 (Primary HTS)]. It counts as functional.
A short description of assay [12]: Luminescence Cell-Based Dose Response HTS to Identify Activators of Luciferase Translation or Activity in H4 […] Cells. [Related pubchem assays: 1829 (Project Summary), 1814 (Primary HTS)]. It counts as functional.
Assay [13] has as its target T4, Beta-lactamase (Pseudomonas aeruginosa, UniProt Q79MP6). The assay can be described thus: IMP-1 metallo-beta-lactamase inhibitors, dose response, selectivity assay for VIM-2 inhibitor project, biochemical, epi-absorbance (AID 1920).
Assay [14] concerns the target Beta-lactamase (Salmonella choleraesuis (strain SC-B67), UniProt Q5J463). The assay can be described thus: Epi-absorbance-based counterscreen for selective VIM-2 inhibitors: dose response biochemical high throughput screening assay to identify inhibitors of TEM-1 serine-beta-lactamase.
The target in assay [15] is T4, Beta-lactamase. The assay can be described thus: […] counterscreen for selective VIM-2 inhibitors: dose response biochemical high throughput screening assay to identify inhibitors of IMP-1 metallo-beta-lactamase.
Assay [16] can be described thus: inhibitors of firefly luciferase expression or activity, dose response, H4 neuroglioma cells, luminescence (AID 1990). It counts as functional, cell-based.
Assay [17] can be described thus: NIH-3T3 fibroblast cytotoxicity, dose response, cytotoxicity control, cell-based, fluorescence, Alamar Blue, secondary assay (AID 2327).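 Also: NIH-3T3 mouse fibroblasts cultured with fluconazole at 8 µg/mL.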 It counts as functional. A general note: Alamar Blue is a resazurin reagent that responds to reducing activity.
For assay [18], the target named is FAD-linked sulfhydryl oxidase ALR (Homo sapiens, UniProt P55789). The assay can be described thus: inhibitors of human ALR sulfhydryl oxidase, dose response, biochemical, H2O2 detection, luminescence, cherry-pick (AID 493248).
FAD-linked sulfhydryl oxidase ALR, sequence (P55789 whole entry): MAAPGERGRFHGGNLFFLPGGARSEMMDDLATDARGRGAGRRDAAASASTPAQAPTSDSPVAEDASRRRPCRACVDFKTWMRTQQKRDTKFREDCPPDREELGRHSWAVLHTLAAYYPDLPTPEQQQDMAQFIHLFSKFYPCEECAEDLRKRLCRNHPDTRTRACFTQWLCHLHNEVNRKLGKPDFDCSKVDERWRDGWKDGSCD
Assay [19] is described as follows: control 3'UTR Renilla luciferase suppression, dose response, counter-screen for Shn3 inhibitor project, cell-based, Clone20-Shn3RL, cherry-picked (AID 624133). It counts as functional.
Assay [20] can be described thus: Luminescence Cell-Based Dose Response HTS to Identify Inhibitors of 5'UTR Stem-Loop Driven Prion Protein mRNA Translation in H4 Neuroglioblastoma Cells. [Related pubchem assays: 1827 (Project Summary), 1813 (Primary HTS)]. It counts as functional.
A short description of assay [21]: HepG2 cell cytotoxicity, dose response, cytotoxicity control for Shn3 inhibitor project, CellTiter-Glo, cherry-picked (AID 624134). It counts as functional, cell-based. Background: ATP-based viability assays read luminescence as a measure of living cells.
Assay [22] in a line: inhibitors of SNCA 5'UTR-driven reporter translation, confirmation, H4 neuroglioma cells, luminescence (AID 1988). It counts as functional, cell-based.
In the next assay the target is Nonstructural protein 1 (Influenza A virus, UniProt Q194T2). It counts as functional, Influenza A virus (A/California/07/2009(H1N1)).
Nonstructural protein 1, sequence (Q194T2 whole entry): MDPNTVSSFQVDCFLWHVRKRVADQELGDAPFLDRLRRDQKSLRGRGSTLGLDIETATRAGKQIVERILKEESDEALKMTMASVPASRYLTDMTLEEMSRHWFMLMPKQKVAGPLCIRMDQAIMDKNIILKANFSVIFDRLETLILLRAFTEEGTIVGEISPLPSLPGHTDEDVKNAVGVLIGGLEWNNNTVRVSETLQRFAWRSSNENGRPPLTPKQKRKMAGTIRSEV
The nature of assay [23]: Shn3 3'UTR reporter inhibitors, dose response, cell-based, Clone20 osteoblasts, firefly luciferase, cherry-picked (AID 624132).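 Also: firefly luciferase luminescence from reporter carrying the Shn3 3'UTR in osteoblasts.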 It counts as functional.
Assay [24] is described as follows: C. albicans growth with fluconazole, confirmation, fluorescence, retest (AID 2467). It counts as functional, cell-based.
The target of the next assay is Phospholipase A2 (Homo sapiens, UniProt P04054). It counts as functional.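 Also: confirmatory dose-response counterscreen on phospholipase A2, testing hits that came from an ultra-high-throughput screen for ATG4B inhibitors.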
Phospholipase A2, sequence (P04054 whole entry): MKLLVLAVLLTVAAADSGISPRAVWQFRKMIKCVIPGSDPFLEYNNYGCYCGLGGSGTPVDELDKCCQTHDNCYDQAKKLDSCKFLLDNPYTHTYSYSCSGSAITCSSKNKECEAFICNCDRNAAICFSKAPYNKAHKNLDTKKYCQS
For a further assay, the target named is T5, Cysteine protease ATG4B (Homo sapiens, UniProt Q9Y4P1).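 Also: Fluorescence-based dose-response confirmation assay measuring inhibition of ATG4B activity.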
T5 sequence (Q9Y4P1 whole entry): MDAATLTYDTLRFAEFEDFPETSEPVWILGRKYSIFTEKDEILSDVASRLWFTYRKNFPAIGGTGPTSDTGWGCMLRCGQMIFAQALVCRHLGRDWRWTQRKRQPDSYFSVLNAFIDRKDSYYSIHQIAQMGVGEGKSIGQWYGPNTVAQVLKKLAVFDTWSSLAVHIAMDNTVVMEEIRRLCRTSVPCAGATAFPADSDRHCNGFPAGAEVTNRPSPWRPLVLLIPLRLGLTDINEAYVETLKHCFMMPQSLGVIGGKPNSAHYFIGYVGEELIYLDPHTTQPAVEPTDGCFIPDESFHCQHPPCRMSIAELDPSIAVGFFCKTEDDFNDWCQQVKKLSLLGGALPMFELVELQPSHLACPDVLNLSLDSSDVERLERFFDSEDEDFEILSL
It counts as functional.

Molecules are shown by their SMILES. Activity calls are given as the source filed them. Bounds are passed on as bounds.

T4 sequence (Q79MP6 whole entry): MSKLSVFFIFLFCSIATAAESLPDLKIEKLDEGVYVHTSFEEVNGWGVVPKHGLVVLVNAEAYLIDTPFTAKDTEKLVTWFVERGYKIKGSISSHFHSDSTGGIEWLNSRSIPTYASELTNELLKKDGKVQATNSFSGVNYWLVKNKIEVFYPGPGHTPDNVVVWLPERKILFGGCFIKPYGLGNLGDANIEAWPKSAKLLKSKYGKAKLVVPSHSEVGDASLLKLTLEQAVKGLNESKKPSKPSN
Beta-lactamase (Salmonella choleraesuis (strain SC-B67), UniProt Q5J463), sequence (Q5J463 whole entry): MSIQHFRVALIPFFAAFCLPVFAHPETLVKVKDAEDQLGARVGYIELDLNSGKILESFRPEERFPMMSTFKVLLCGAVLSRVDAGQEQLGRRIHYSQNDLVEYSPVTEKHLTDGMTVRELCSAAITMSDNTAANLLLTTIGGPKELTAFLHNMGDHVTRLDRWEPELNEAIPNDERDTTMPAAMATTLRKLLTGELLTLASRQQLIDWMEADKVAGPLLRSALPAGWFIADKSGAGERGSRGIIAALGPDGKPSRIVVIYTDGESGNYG
SWI/SNF-related matrix-associated actin-dependent regulator of chromatin subfamily A member 2, sequence (P51531 whole entry): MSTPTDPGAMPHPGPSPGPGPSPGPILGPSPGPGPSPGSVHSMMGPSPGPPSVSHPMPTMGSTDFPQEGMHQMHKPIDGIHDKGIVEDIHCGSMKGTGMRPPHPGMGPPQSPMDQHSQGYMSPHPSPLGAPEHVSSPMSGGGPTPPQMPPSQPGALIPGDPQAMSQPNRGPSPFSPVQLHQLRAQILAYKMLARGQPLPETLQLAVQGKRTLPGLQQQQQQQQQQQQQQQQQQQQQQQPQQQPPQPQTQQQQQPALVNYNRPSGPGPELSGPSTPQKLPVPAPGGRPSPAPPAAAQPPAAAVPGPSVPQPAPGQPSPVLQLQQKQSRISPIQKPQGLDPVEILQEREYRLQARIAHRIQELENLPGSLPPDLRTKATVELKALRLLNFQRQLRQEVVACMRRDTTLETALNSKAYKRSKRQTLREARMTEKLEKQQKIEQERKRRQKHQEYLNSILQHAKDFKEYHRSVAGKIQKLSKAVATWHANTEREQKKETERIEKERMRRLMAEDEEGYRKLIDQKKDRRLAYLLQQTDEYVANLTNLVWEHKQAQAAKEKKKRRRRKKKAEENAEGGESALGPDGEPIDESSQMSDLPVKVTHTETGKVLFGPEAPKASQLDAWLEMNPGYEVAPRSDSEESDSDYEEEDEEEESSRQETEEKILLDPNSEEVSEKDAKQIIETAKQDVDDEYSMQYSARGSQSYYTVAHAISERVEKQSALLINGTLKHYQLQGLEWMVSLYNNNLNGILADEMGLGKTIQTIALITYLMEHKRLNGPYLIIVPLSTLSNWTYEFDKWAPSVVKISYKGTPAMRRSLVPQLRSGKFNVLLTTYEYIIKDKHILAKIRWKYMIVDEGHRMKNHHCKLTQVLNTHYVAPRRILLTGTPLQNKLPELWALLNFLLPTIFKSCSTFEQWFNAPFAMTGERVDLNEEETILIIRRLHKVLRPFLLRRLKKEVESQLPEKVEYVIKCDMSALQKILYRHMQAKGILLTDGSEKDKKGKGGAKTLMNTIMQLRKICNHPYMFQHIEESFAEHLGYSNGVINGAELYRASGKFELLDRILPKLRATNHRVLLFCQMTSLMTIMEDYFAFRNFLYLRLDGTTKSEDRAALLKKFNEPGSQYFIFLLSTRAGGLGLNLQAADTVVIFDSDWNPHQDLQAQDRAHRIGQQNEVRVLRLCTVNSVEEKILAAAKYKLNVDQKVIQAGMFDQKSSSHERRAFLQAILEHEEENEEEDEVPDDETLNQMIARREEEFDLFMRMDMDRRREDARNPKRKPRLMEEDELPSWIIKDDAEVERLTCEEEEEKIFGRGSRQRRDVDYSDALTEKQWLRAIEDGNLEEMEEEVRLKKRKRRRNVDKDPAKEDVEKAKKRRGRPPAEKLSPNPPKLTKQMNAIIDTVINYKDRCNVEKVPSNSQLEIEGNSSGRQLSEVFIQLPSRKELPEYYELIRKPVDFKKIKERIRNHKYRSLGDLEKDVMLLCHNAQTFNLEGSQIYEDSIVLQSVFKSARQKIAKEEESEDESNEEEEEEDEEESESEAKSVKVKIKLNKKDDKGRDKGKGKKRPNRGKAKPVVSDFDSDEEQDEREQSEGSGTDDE

Broadly, the EC50 is the midpoint of the concentration-response curve. One may read the IC50 as the midpoint of a concentration-inhibition curve. For the compound `COc1ccccc1CCNCc1ccc(OC)c(OC)c1OC`, the EC50 in “cells [1]” is > 29.9 µM (inactive); in [2] it was 2.37 µM (active). The IC50 is > 29.9 µM (inactive) in the assay “cells [3]” and 10.5 µM (inactive) in [4].
On to `O=C(CS(=O)(=O)Cc1ccccc1)N1CCc2ccccc2C1`, for which the 50% inhibitory concentration (IC50) in [5] is 6.67 µM (active); in [6] it was 11.4 µM (active).
Turning to `O=C(NCCc1ccccc1Cl)[C@@H]1CCCN1C(=O)[C@@H](NC(=O)N1CCOCC1)C1CCCCC1`, the EC50 in the assay “cells [1]” was > 29.9 µM (inactive); in assay [2], 5.36 µM (active). Moreover, the results for the IC50 (in the assay “cells [3]”; in [4]) were > 29.9 µM (inactive) and 6.35 µM (active), respectively.
`C[C@@H]1CN([C@H](C)CO)S(=O)(=O)c2ccc(/C=C/c3ccccc3)cc2O[C@H]1CN(C)C(=O)NC1CCCCC1` showed an AbsAC35 in assay [7] of 64.61 µM.
For the compound `O=C(NCCc1ccccc1)C(=O)NCC1OCCN1S(=O)(=O)c1ccccc1` (stereo not given), the EC50 was > 29.9 µM (inactive) in the assay “cells [1]” and 5.39 µM (active) in assay [2]. Further, the IC50 is > 29.9 µM (inactive) in the assay “cells [3]” and 11.8 µM (inactive) in assay [4].
As a reminder, the AC50 is the concentration giving half of the maximal activity seen. In the case of `O=C(c1ccncc1)N1CC[C@@H]2[C@H]1c1cc(Br)ccc1N[C@@H]2CO`, in assay [8], the AC50 was 0.894 µM (active).
`O=C(CSc1nnc2ccccn12)Nc1ncc(Cl)cc1Cl`: the EC50 in assay [9] and in assay [10] was > 91.2 µM (inactive) throughout.
On to `Clc1ccc(-c2nc3ccc(Cl)cn3c2Cc2ccsc2)cc1`, for which the EC50 in [9] and in [10] was > 91.2 µM (inactive) each time.
For `O=C(c1ccncc1)N1CC[C@@H]2[C@H](CO)Nc3ccc(Br)cc3[C@@H]21`, the AC50 in [8] is 1.17 µM (active).
On to `O=C(/C=C/NNC(=O)c1ccc(Cl)cc1)c1ccccc1`, for which the EC50 is 49.6 µM (active) in the assay with H4, > 120 µM (not active) in [11] and > 120 µM (not active) in assay [12]. For the same compound, the figures for the IC50 in assay [5] and in assay [6] were 37.4 µM (active) and > 100 µM (inactive), respectively.
For `Cc1ccc(-c2c(C(=O)O)c(C(=O)O)c3n2CSC3)cc1`, the figures for the IC50 at Beta-lactamase [13], on Beta-lactamase [14] and at Beta-lactamase [15] were > 59.6 µM (inactive), > 59.6 µM (inactive) and 15.7 µM (inactive), respectively.
As for `CCCc1cc(=O)oc2c3c(cc(OCC(=O)N4CCC[C@H]4C(=O)O)c12)OC(C)(C)CC3`, the IC50 on Beta-lactamase [13], at Beta-lactamase [14] and at Beta-lactamase [15] was > 59.6 µM (inactive) throughout.
`Cc1ccc(S(=O)(=O)Nc2ccc(O)c3ncccc23)cc1`: the EC50 was 15.1 µM (active) in assay [16]; 28.4 µM (active) in [17]; > 30 µM (not active) in assay [20]; 10.6 µM (active) in assay [22]; 2.12 µM (inconclusive) in [24]. In addition, the AC50 in assay [18] is 5.2 µM (active); in assay [19] it was 0.715 µM (active); in [21] it was 41.4 µM (active); in assay [23] it was 1.55 µM (active). Also, the IC50 at Nonstructural protein 1 was 16 µM (active).
As for `CCCOc1ccc2c3c(c(=O)oc2c1OCCC)CCC3`, the results for the IC50 at Phospholipase A2 and at Cysteine protease ATG4B were 7.13 µM (active) and 11.4 µM (active), respectively. In assay [8], the AC50 was 14.7 µM (active).

The values are drawn from ChEMBL document CHEMBL1201862, “PubChem BioAssay data set” (2004).
